Assay results reported in paper PMC3685283 (Molecular cancer research : MCR, 2012).

How the values were obtained:
Smoothened (SMO) [1] = molecular target: Smoothened (SMO) (Homo sapiens, UniProt Q99835); assay: BODIPY-cyclopamine competition binding in SMO-transfected HeLa cells; format: cell-based
Smoothened (SMO) [2] = molecular target: Smoothened (SMO) (Mus musculus, UniProt P56726); assay: as above; format: cell-based
Smoothened (SMO) (Mus musculus, UniProt P56726), sequence (P56726 33-793): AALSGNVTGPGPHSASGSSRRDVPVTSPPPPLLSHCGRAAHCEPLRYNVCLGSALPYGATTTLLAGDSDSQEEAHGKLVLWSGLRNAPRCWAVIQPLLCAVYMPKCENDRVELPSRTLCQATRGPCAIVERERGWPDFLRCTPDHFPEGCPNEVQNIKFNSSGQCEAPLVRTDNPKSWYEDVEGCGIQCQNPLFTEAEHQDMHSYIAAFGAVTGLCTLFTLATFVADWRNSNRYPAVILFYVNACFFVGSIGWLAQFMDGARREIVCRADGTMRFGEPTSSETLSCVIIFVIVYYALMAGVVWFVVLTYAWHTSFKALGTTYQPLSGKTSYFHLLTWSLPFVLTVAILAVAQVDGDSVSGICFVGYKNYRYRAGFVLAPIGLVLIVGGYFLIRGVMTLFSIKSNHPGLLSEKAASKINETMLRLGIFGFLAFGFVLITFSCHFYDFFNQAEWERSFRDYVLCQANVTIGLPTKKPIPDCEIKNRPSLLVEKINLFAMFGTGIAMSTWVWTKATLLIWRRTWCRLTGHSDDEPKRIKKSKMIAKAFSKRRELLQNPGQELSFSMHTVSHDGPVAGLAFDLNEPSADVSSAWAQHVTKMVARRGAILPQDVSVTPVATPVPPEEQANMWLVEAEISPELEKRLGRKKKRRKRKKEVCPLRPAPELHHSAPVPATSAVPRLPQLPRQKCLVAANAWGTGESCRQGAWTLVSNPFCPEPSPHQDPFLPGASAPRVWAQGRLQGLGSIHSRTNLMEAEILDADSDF

Smoothened (SMO) (Homo sapiens, UniProt Q99835), sequence (Q99835 28-787): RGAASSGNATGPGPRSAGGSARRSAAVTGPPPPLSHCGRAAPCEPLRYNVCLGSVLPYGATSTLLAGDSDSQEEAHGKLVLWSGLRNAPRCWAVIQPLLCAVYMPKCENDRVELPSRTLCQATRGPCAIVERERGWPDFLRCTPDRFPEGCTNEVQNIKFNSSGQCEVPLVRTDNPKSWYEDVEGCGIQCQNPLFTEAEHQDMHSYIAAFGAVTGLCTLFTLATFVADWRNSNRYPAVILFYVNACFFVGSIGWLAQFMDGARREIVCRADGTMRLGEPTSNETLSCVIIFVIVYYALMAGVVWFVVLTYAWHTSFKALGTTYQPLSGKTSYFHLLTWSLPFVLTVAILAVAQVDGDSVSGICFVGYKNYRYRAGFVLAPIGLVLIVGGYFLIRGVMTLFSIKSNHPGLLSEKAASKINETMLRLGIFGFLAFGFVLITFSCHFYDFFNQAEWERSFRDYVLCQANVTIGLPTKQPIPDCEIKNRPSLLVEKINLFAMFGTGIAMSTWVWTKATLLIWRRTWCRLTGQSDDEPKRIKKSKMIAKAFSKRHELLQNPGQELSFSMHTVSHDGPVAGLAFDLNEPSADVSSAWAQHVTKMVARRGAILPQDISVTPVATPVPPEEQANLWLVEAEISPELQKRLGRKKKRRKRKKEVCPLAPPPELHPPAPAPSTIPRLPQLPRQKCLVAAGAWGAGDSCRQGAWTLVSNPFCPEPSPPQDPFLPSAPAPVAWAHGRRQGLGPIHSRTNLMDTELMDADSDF

Kd (Smoothened (SMO) [1]): 0.8 nM
Kd (Smoothened (SMO) [2]): 2 nM
SMILES: CC1=C2C[C@H]3[C@@H](CC=C4CC(=O)CC[C@@]43C)[C@@H]2CC[C@]12O[C@@H]1C[C@H](C)CN(CCNC(=O)CCCCCNC(=O)CCc3ccccc3)[C@H]1[C@H]2C [KAAD-cyclopamine]
